From PubChem BioAssay (NCI)
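Assay format: 96-well plates, 48-hour exposure. At the GI50, growth is halved. TGI is the concentration that stops growth completely.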

Legend:
Test in all cases: DTP human tumour cell line panel, 48 h
[1] = system: RPMI-8226 leukemia
[2] = system: SNB-75 CNS
[3] = system: SK-OV-3 ovarian
[4] = system: NCI/ADR-RES ovarian
[5] = system: KM12 colon
[6] = system: OVCAR-8 ovarian
[7] = system: OVCAR-5 ovarian
[8] = system: MDA-MB-231 breast
[9] = system: CAKI-1 renal
[10] = system: IGROV1 ovarian
[11] = system: PC-3 prostate
[12] = system: RXF 393 renal
[13] = system: U251 CNS
[14] = system: CCRF-CEM leukemia
[15] = system: UACC-257 melanoma
[16] = system: MALME-3M melanoma
[17] = system: TK-10 renal
[18] = system: OVCAR-4 ovarian
[19] = system: HOP-62 NSCLC
[20] = system: SK-MEL-2 melanoma
[21] = system: DU-145 prostate
[22] = system: MOLT-4 leukemia
[23] = system: NCI-H23 lung
[24] = system: MCF7 breast
[25] = system: ACHN renal
[26] = system: UACC-62 melanoma
[27] = system: BT-549 breast
[28] = system: HCC-2998 colon
[29] = system: SF-539 CNS
[30] = system: HT29 colon
[31] = system: SNB-19 CNS
[32] = system: LOX IMVI melanoma
[33] = system: K-562 leukemia
[34] = system: UO-31 renal
[35] = system: OVCAR-3 ovarian
[36] = system: COLO 205 colon
[37] = system: SN12C renal
[38] = system: HOP-92 NSCLC
[39] = system: A498 renal
[40] = system: SK-MEL-28 melanoma
[41] = system: SW-620 colon
[42] = system: HL-60(TB) leukemia
[43] = system: SF-268 CNS
[44] = system: T-47D breast
[45] = system: 786-0 renal
[46] = system: MDA-MB-435
[47] = system: A549 NSCLC
[48] = system: NCI-H522 lung
[49] = system: MDA-MB-468 breast
[50] = system: HCT-116 colon
[51] = system: SK-MEL-5 melanoma
[52] = system: HCT-15 colon
[53] = system: HS 578T breast
[54] = system: SF-295 CNS
[55] = system: SR leukemia
[56] = system: M14 melanoma
[57] = system: EKVX NSCLC
[58] = system: NCI-H460 lung
[59] = system: NCI-H226 lung

Work on `C[C@H]1[C@H](C)CC[C@]2(COC(=O)CCC(=O)NCC#CCN3CCNCC3)CC[C@]3(C)C(=CC[C@@H]4[C@@]5(C)CCCNC(C)(C)[C@@H]5CC[C@]43C)[C@H]12` yielded a GI50 [1] of 17 µM, a TGI [1] of 94.5 µM and a GI50 [2] of 13.3 µM. The TGI [2] was 37.8 µM, the GI50 [3] was 19.4 µM and the TGI [3] was 44.7 µM. For the same molecule, the GI50 [4] was 17.4 µM, the TGI [4] was 34.6 µM and the GI50 [5] was 17.5 µM. The TGI [5] was 34 µM, the GI50 [6] was 19 µM and the TGI [6] was 37.9 µM. The GI50 [7] was 17.2 µM, the TGI [7] was 30.9 µM and the GI50 [8] was 18.2 µM. For the same molecule, the TGI [8] was 32.1 µM, the GI50 [9] was 14.7 µM and the TGI [9] was 28.4 µM. It also gave a GI50 [10] of 14.3 µM, a TGI [10] of 27.3 µM and a GI50 [11] of 11 µM. It also gave a TGI [11] of 27.3 µM, a GI50 [12] of 18.2 µM and a TGI [12] of 45.6 µM. It also gave a GI50 [13] of 16.9 µM, a TGI [13] of 32 µM and a GI50 [14] of 16.8 µM. It also gave a TGI [14] of 48.2 µM, a GI50 [15] of 16.5 µM and a TGI [15] of 33.5 µM. It also gave a GI50 [16] of 15.8 µM, a TGI [16] of 29.2 µM and a GI50 [17] of 18.9 µM. The TGI [17] was 37.4 µM, the GI50 [18] was 25.1 µM and the TGI [18] was 72.9 µM. For the same molecule, the GI50 [19] was 18.9 µM, the TGI [19] was 36.8 µM and the GI50 [20] was 17.7 µM. The TGI [20] was 33.4 µM, the GI50 [21] was 17.5 µM and the TGI [21] was 31.2 µM. The GI50 [22] was 9.96 µM, the TGI [22] was 32.9 µM and the GI50 [23] was 16.2 µM. The TGI [23] was 30.7 µM, the GI50 [24] was 12.7 µM and the TGI [24] was 25.3 µM. For the same molecule, the GI50 [25] was 16.4 µM, the TGI [25] was 30 µM and the GI50 [26] was 14 µM. For the same molecule, the TGI [26] was 27.2 µM, the GI50 [27] was 16.2 µM and the TGI [27] was 32.7 µM. It also gave a GI50 [28] of 15.1 µM, a TGI [28] of 29.2 µM and a GI50 [29] of 13.9 µM. It also gave a TGI [29] of 26.8 µM, a GI50 [30] of 12.3 µM and a TGI [30] of 26.1 µM. The GI50 [31] was 15.7 µM, the TGI [31] was 29.1 µM and the GI50 [32] was 20.5 µM. It also gave a TGI [32] of 44.7 µM, a GI50 [33] of 6.02 µM and a TGI [33] of 20.5 µM. It also gave a GI50 [34] of 12 µM, a TGI [34] of 24.3 µM and a GI50 [35] of 14.1 µM. The TGI [35] was 27.6 µM, the GI50 [36] was 18.3 µM and the TGI [36] was 36 µM. For the same molecule, the GI50 [37] was 14.7 µM, the TGI [37] was 28.8 µM and the GI50 [38] was 13.2 µM. It also gave a TGI [38] of 41.7 µM, a GI50 [39] of 15.1 µM and a TGI [39] of 28.3 µM. It also gave a GI50 [40] of 16.4 µM, a TGI [40] of 30 µM and a GI50 [41] of 15.5 µM. For the same molecule, the TGI [41] was 28.9 µM, the GI50 [42] was 4.98 µM and the TGI [42] was 27.1 µM. It also gave a GI50 [43] of 17.9 µM, a TGI [43] of 40.1 µM and a GI50 [44] of 19 µM. It also gave a TGI [44] of 44.4 µM, a GI50 [45] of 15 µM and a TGI [45] of 34.6 µM. For the same molecule, the GI50 [46] was 14.1 µM, the TGI [46] was 27.5 µM and the GI50 [47] was 14.9 µM. The TGI [47] was 28.1 µM, the GI50 [48] was 16.4 µM and the TGI [48] was 33.7 µM. It also gave a GI50 [49] of 10.7 µM, a TGI [49] of 25.9 µM and a GI50 [50] of 11.5 µM. For the same molecule, the TGI [50] was 23.6 µM, the GI50 [51] was 14.2 µM and the TGI [51] was 31.9 µM. For the same molecule, the GI50 [52] was 14.5 µM, the TGI [52] was 27.6 µM and the GI50 [53] was 20.9 µM. For the same molecule, the TGI [53] was 55.7 µM, the GI50 [54] was 22.5 µM and the TGI [54] was 57.2 µM. For the same molecule, the GI50 [55] was 15.4 µM, the TGI [55] was 61.5 µM and the GI50 [56] was 15.7 µM. The TGI [56] was 30.9 µM, the GI50 [57] was 15.9 µM and the TGI [57] was 32.2 µM. The GI50 [58] was 16.5 µM, the TGI [58] was 30.1 µM and the GI50 [59] was 27.3 µM. It also gave a TGI [59] greater than 100 µM.

In the case of `Cn1cc(-c2nc(N)nnc2-c2c[nH]c3ccc(F)cc23)c2cc(Br)cnc21`, the GI50 [1] was 0.403 µM, the TGI [1] was greater than 100 µM and the GI50 [2] was 0.0474 µM. The TGI [2] was 14.1 µM, the GI50 [3] was 0.126 µM and the TGI [3] was 19.6 µM. It also gave a GI50 [4] of 0.155 µM, a TGI [4] of 1.17 µM and a GI50 [5] of 0.0508 µM. The TGI [5] was 13.4 µM, the GI50 [6] was 0.192 µM and the TGI [6] was 12.4 µM. It also gave a GI50 [7] of 0.217 µM, a TGI [7] of 14.6 µM and a GI50 [8] of 0.121 µM. The TGI [8] was 8.26 µM, the GI50 [9] was 0.0764 µM and the TGI [9] was 17 µM. The GI50 [10] was 0.0727 µM, the TGI [10] was 14.3 µM and the GI50 [11] was 0.0949 µM. It also gave a TGI [11] of 48.9 µM, a GI50 [12] of 0.0471 µM and a TGI [12] of 0.236 µM. The GI50 [13] was 0.0574 µM, the TGI [13] was 13 µM and the GI50 [14] was 0.109 µM. The TGI [14] was greater than 67.1 µM, the GI50 [15] was 11.8 µM and the TGI [15] was 25.1 µM. It also gave a GI50 [16] of 0.0525 µM, a TGI [16] of 18.8 µM and a GI50 [17] of 10.6 µM. The TGI [17] was 25.8 µM, the GI50 [18] was 3.56 µM and the TGI [18] was 33 µM. The GI50 [19] was 0.0858 µM, the TGI [19] was 19.2 µM and the GI50 [20] was 0.0872 µM. It also gave a TGI [20] of 13.6 µM, a GI50 [21] of 0.144 µM and a TGI [21] of 14.1 µM. It also gave a GI50 [22] of 0.161 µM, a TGI [22] of 14.8 µM and a GI50 [23] of 0.198 µM. The TGI [23] was 11.2 µM, the GI50 [24] was 0.0358 µM and the TGI [24] was 12.3 µM. The GI50 [25] was 0.0911 µM, the TGI [25] was 15.4 µM and the GI50 [26] was 0.0323 µM. For the same molecule, the TGI [26] was 12.8 µM, the GI50 [27] was 0.0918 µM and the TGI [27] was 10.1 µM. The GI50 [28] was 0.156 µM, the TGI [28] was 5.77 µM and the GI50 [29] was 0.0462 µM. The TGI [29] was 0.405 µM, the GI50 [30] was 0.0506 µM and the TGI [30] was 0.615 µM. For the same molecule, the GI50 [31] was 0.139 µM, the TGI [31] was 12.7 µM and the GI50 [32] was 0.0635 µM. The TGI [32] was 14.9 µM, the GI50 [33] was 0.0394 µM and the TGI [33] was greater than 100 µM. The GI50 [34] was 0.276 µM, the TGI [34] was 13.2 µM and the GI50 [35] was 0.053 µM. The TGI [35] was 15.7 µM, the GI50 [36] was 0.0737 µM and the TGI [36] was 0.886 µM. The GI50 [37] was 0.204 µM, the TGI [37] was 13.8 µM and the GI50 [38] was 5.93 µM. The TGI [38] was 30.7 µM, the GI50 [39] was 13.6 µM and the TGI [39] was 27.1 µM. The GI50 [40] was 0.161 µM, the TGI [40] was 19.5 µM and the GI50 [41] was 0.0487 µM. For the same molecule, the TGI [41] was 15.2 µM, the GI50 [42] was 0.039 µM and the TGI [42] was 0.29 µM. For the same molecule, the GI50 [43] was 1.46 µM, the TGI [43] was 18.9 µM and the GI50 [45] was 0.145 µM. It also gave a TGI [45] of 18 µM, a GI50 [46] of 0.0262 µM and a TGI [46] of 0.0782 µM. It also gave a GI50 [47] of 0.172 µM, a TGI [47] greater than 48.4 µM and a GI50 [48] of 0.0193 µM. For the same molecule, the TGI [48] was 0.231 µM, the GI50 [49] was 0.0272 µM and the TGI [49] was 0.124 µM. For the same molecule, the GI50 [50] was 0.0521 µM, the TGI [50] was 13.1 µM and the GI50 [51] was 0.0402 µM. The TGI [51] was 1.69 µM, the GI50 [52] was 0.0523 µM and the TGI [52] was 11.6 µM. For the same molecule, the GI50 [53] was 0.0496 µM, the TGI [53] was 25.8 µM and the GI50 [54] was 0.0488 µM. It also gave a TGI [54] of 12.3 µM, a GI50 [55] of 0.0388 µM and a TGI [55] greater than 54.9 µM. The GI50 [56] was 0.087 µM, the TGI [56] was 16.2 µM and the GI50 [57] was 0.279 µM. It also gave a TGI [57] of 17.7 µM, a GI50 [58] of 0.0458 µM and a TGI [58] of 3.77 µM. For the same molecule, the GI50 [59] was 0.109 µM and the TGI [59] was 12.7 µM.
